ChEMBL document CHEMBL1201862, “PubChem BioAssay data set” (2004)
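Five compound concentrations were applied to cells in 96-well plates for 48 hours; endpoints were derived by simple linear interpolation of the resulting dose-response curve. GI50 marks 50% less growth.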 Activity calls are given as the source filed them. Cut-off read from the data, not from the text of the source: active = GI50 up to about 1.1 µM and inactive = higher.

What was measured:
Test in all cases: inhibition of tumour cell growth, NCI panel, 48 h
[1] = test system: 786-0
[2] = test system: ACHN
[3] = test system: BT-549
[4] = test system: DU-145
[5] = test system: HOP-62
[6] = test system: HOP-92
[7] = test system: HT-29
[8] = test system: Hs-578T
[9] = test system: LOX IMVI
[10] = test system: M14
[11] = test system: MCF7
[12] = test system: MDA-MB-435
[13] = test system: MOLT-4
[14] = test system: NCI-H23
[15] = test system: NCI-H522
[16] = test system: RPMI-8226
[17] = test system: SF-539
[18] = test system: SK-OV-3
[19] = test system: U-251
[20] = test system: UACC-257

SMILES | GI50 [1] | GI50 [2] | GI50 [3] | GI50 [4] | GI50 [5] | GI50 [6] | GI50 [7] | GI50 [8] | GI50 [9] | GI50 [10] | GI50 [11] | GI50 [12] | GI50 [13] | GI50 [14] | GI50 [15] | GI50 [16] | GI50 [17] | GI50 [18] | GI50 [19] | GI50 [20]
O=C1c2ccccc2C(=O)c2c(NCC3CO3)ccc(NCC3CO3)c21 (stereo not given) | 0.766 µM (active) | 0.303 µM (active) | 3.15 µM (inactive) | 3.58 µM (inactive) | 1.55 µM (inactive) | 10.3 µM (inactive) | 1.88 µM (inactive) | 3.72 µM (inactive) | 0.0132 µM (active) | 0.682 µM (active) | 0.112 µM (active) | 1.22 µM (inactive) | 0.0119 µM (active) | 1.49 µM (inactive) | 5.24 µM (inactive) | 2.76 µM (inactive) | 1.91 µM (inactive) | 10.4 µM (inactive) | 1.65 µM (inactive) | 7.08 µM (inactive)
COc1ccc(N(CC(=O)O)N=O)cc1 | > 100 µM (inactive) | > 100 µM (inactive) | > 100 µM (inactive) | > 100 µM (inactive) | > 100 µM (inactive) | > 100 µM (inactive) | > 100 µM (inactive) | > 100 µM (inactive) | > 100 µM (inactive) | > 100 µM (inactive) | > 100 µM (inactive) | > 100 µM (inactive) | > 100 µM (inactive) | > 100 µM (inactive) | > 100 µM (inactive) | > 100 µM (inactive) | > 100 µM (inactive) | > 100 µM (inactive) | > 100 µM (inactive) | > 100 µM (inactive)
CN(C)CCS/C(=N\c1ccccc1)N1C=COC=C1 | 20.1 µM (inactive) | 34.1 µM (inactive) | > 100 µM (inactive) | 75.9 µM (inactive) | > 100 µM (inactive) | 26.2 µM (inactive) | 43.7 µM (inactive) | 89.1 µM (inactive) | 16 µM (inactive) | 18 µM (inactive) | 17.9 µM (inactive) | 18.9 µM (inactive) | > 84.7 µM (inactive) | 25.8 µM (inactive) | 17.4 µM (inactive) | 61.7 µM (inactive) | 29.2 µM (inactive) | > 100 µM (inactive) | 48 µM (inactive) | 18.2 µM (inactive)
CCCCC(=O)Nc1ccc2cc(C(=O)OC)c(Cl)nc2n1 | > 100 µM (inactive) | > 100 µM (inactive) | > 100 µM (inactive) | 3.11 µM (inactive) | 7.11 µM (inactive) | > 100 µM (inactive) | > 100 µM (inactive) | 4.7 µM (inactive) | > 100 µM (inactive) | > 100 µM (inactive) | 13.3 µM (inactive) | > 100 µM (inactive) | > 100 µM (inactive) | > 100 µM (inactive) | > 100 µM (inactive) | 9.75 µM (inactive) | > 100 µM (inactive) | > 100 µM (inactive) | 28.6 µM (inactive) | 43.7 µM (inactive)
CC(C)(C)N1CSC(=S)N(Cc2ccco2)C1 | 1.63 µM (inactive) | 3.27 µM (inactive) | 2.79 µM (inactive) | 3.85 µM (inactive) | 4.8 µM (inactive) | 1.55 µM (inactive) | 3.27 µM (inactive) | 4.78 µM (inactive) | 3.05 µM (inactive) | 2.46 µM (inactive) | 0.52 µM (active) | 1.76 µM (inactive) | 1.45 µM (inactive) | 2.37 µM (inactive) | 3.27 µM (inactive) | 0.177 µM (active) | 0.708 µM (active) | 5.75 µM (inactive) | 3.72 µM (inactive) | 10.3 µM (inactive)
NC(Cc1ccc(N(CCCl)CCCl)cc1)C(=O)NC(CCC(=O)O)C(=O)O (stereo not given) | > 100 µM (inactive) | > 100 µM (inactive) | > 100 µM (inactive) | > 100 µM (inactive) | > 100 µM (inactive) | > 100 µM (inactive) | > 100 µM (inactive) | > 100 µM (inactive) | > 100 µM (inactive) | > 100 µM (inactive) | > 100 µM (inactive) | > 100 µM (inactive) | > 100 µM (inactive) | > 100 µM (inactive) | > 100 µM (inactive) | > 100 µM (inactive) | > 100 µM (inactive) | > 100 µM (inactive) | > 100 µM (inactive) | > 100 µM (inactive)
COc1ccc(C(=O)O[C@@H]2CCN3CC[C@H](C)[C@H]23)cc1 | > 100 µM (inactive) | > 100 µM (inactive) | > 100 µM (inactive) | > 100 µM (inactive) | > 100 µM (inactive) | > 100 µM (inactive) | > 100 µM (inactive) | > 100 µM (inactive) | > 100 µM (inactive) | > 100 µM (inactive) | > 100 µM (inactive) | > 100 µM (inactive) | > 100 µM (inactive) | > 100 µM (inactive) | > 100 µM (inactive) | > 100 µM (inactive) | > 100 µM (inactive) | > 100 µM (inactive) | > 100 µM (inactive) | > 100 µM (inactive)
Cc1cc(C)n(CC(Cn2nc(C)cc2C)=C(/C(Cl)=C(/Cl)Nc2ccc([N+](=O)[O-])cc2)[N+](=O)[O-])n1 | 5.06 µM (inactive) | 3.25 µM (inactive) | 3.33 µM (inactive) | 4.03 µM (inactive) | 4.46 µM (inactive) | 2.47 µM (inactive) | 3.28 µM (inactive) | 5.31 µM (inactive) | 2.3 µM (inactive) | 4.37 µM (inactive) | 3.71 µM (inactive) | 1.84 µM (inactive) | 1.79 µM (inactive) | 2.43 µM (inactive) | 2.09 µM (inactive) | 1.93 µM (inactive) | 3.52 µM (inactive) | 3.37 µM (inactive) | 3.53 µM (inactive) | 3.4 µM (inactive)
C[C@]12CCC3C4=C(CCC3C1CCC2=O)C(=O)[C@H]1O[C@H]1C4=O (stereo not given in full) | 1.83 µM (inactive) | 2.57 µM (inactive) | 1.98 µM (inactive) | 3.12 µM (inactive) | 3.27 µM (inactive) | 7.67 µM (inactive) | 1.36 µM (inactive) | 9.51 µM (inactive) | 1.89 µM (inactive) | 4.05 µM (inactive) | 2.18 µM (inactive) | 11.8 µM (inactive) | 0.785 µM (active) | 2.77 µM (inactive) | 1.84 µM (inactive) | 0.641 µM (active) | 1.92 µM (inactive) | 13.9 µM (inactive) | 2.75 µM (inactive) | 17.4 µM (inactive)
O=C(/C=C/C(=O)N1CCCC1)N1CCCC1 | > 100 µM (inactive) | > 100 µM (inactive) | > 100 µM (inactive) | > 100 µM (inactive) | > 100 µM (inactive) | > 100 µM (inactive) | > 100 µM (inactive) | > 100 µM (inactive) | > 100 µM (inactive) | > 100 µM (inactive) | > 100 µM (inactive) | > 100 µM (inactive) | > 100 µM (inactive) | > 100 µM (inactive) | > 100 µM (inactive) | > 100 µM (inactive) | > 100 µM (inactive) | > 100 µM (inactive) | > 100 µM (inactive) | > 100 µM (inactive)
NC1=CN(CCCO)C2=N/C(=C\c3ccccc3)C(=O)N12 | > 100 µM (inactive) | > 100 µM (inactive) | > 100 µM (inactive) | > 100 µM (inactive) | > 100 µM (inactive) | > 100 µM (inactive) | > 100 µM (inactive) | 86.3 µM (inactive) | > 100 µM (inactive) | > 100 µM (inactive) | > 100 µM (inactive) | > 100 µM (inactive) | > 100 µM (inactive) | > 100 µM (inactive) | 80.4 µM (inactive) | 83.4 µM (inactive) | > 100 µM (inactive) | > 100 µM (inactive) | > 100 µM (inactive) | > 100 µM (inactive)
O=S(=O)(O)c1cc(S(=O)(=O)O)c2c(/N=N/c3cccc4ccccc34)c(O)ccc2c1 | > 100 µM (inactive) | > 100 µM (inactive) | > 100 µM (inactive) | > 100 µM (inactive) | > 100 µM (inactive) | > 100 µM (inactive) | > 100 µM (inactive) | > 100 µM (inactive) | > 100 µM (inactive) | > 100 µM (inactive) | > 100 µM (inactive) | > 100 µM (inactive) | > 100 µM (inactive) | > 100 µM (inactive) | > 100 µM (inactive) | > 100 µM (inactive) | > 100 µM (inactive) | > 100 µM (inactive) | > 100 µM (inactive) | > 100 µM (inactive)
O=C1/C(=C/c2cccc([N+](=O)[O-])c2)Cc2ccccc21 | > 100 µM (inactive) | > 100 µM (inactive) | > 100 µM (inactive) | > 100 µM (inactive) | > 100 µM (inactive) | 75.3 µM (inactive) | > 100 µM (inactive) | > 100 µM (inactive) | > 100 µM (inactive) | > 100 µM (inactive) | > 100 µM (inactive) | > 100 µM (inactive) | > 100 µM (inactive) | 73.1 µM (inactive) | 59.3 µM (inactive) | > 100 µM (inactive) | > 100 µM (inactive) | > 100 µM (inactive) | 60.1 µM (inactive) | > 100 µM (inactive)
Nc1ccc(-c2nc3cc(F)ccc3s2)cc1I | 16.2 µM (inactive) | 5.36 µM (inactive) | 13.5 µM (inactive) | 43.7 µM (inactive) | 10.2 µM (inactive) | 17.3 µM (inactive) | 0.889 µM (active) | 25.2 µM (inactive) | 39.5 µM (inactive) | 39.3 µM (inactive) | < 0.0154 µM (active) | > 80.9 µM (inactive) | > 100 µM (inactive) | 0.445 µM (active) | 13.6 µM (inactive) | > 100 µM (inactive) | 15.6 µM (inactive) | 14.4 µM (inactive) | 13.9 µM (inactive) | 49.3 µM (inactive)
